Experimental data published in patent US5576436A, “Fluorescent ligands” (Pharmaceutical Discovery Corporation, priority 1994, dated 1996).
Read-outs that look alike come from different tables or passages of the source.

Columns and labels:
Kappa 1 = test: Fluorescent ligand binding, kappa1 opioid receptor; conditions: result in words
kappa1 opioid receptor = test: Radioligand ([^3 H]U69,593) binding, kappa1 opioid receptor; conditions: read-out: IC50 value versus radioligand binding
benzodiazepine receptors = conditions: cited from earlier work
Glycine = test: Fluorescent ligand binding, glycine receptor (strychnine-insensitive); conditions: Table I
Dopamine 2 [1] = test: Fluorescent ligand binding, dopamine 2 (direct fluorescence measurement); conditions: Table I
Dopamine 2 [2] = test: Radioligand binding, dopamine 2; conditions: Table I; read-out: Radiolig. Kd:Ki
NMDA [3] = test: Fluorescent ligand binding, NMDA receptor complex; conditions: Table I
Description: NMDA RECEPTOR COMPLEX LIGAND (spectral shift compound) (PDC 014.041)
(§1) Recommended Assay Conditions:
Incubation buffer: 5 mM Hepes/Tris (pH 7.8 at 25° C.)
Spectra: 335 nm (ex) and 515 nm (em)
(§2) 1. Reconstitution: 10.0 ml of incubation buffer
3. Incubation Time: 2 hours at 25° C.
4. Measure fluorescence intensity: 335 nm (ex) and […]

NMDA [4] = test: Radioligand binding, NMDA; conditions: Table I; read-out: Radiolig. Kd:Ki
Dopamine 1 [5] = test: Fluorescent ligand binding, dopamine 1 (direct fluorescence measurement); conditions: Table I
Dopamine 1 [6] = test: Radioligand binding, dopamine 1; conditions: Table I; read-out: Radiolig. Kd:Ki
Cannabinoid = test: Radioligand binding, cannabinoid receptor; conditions: Table I; read-out: Radiolig. Kd:Ki
Muscarinic-M1 [7] = test: Fluorescent ligand binding, muscarinic-M1 receptor; conditions: Table I
Muscarinic-M1 [8] = test: Radioligand binding, muscarinic-M1; conditions: Table I; read-out: Radiolig. Kd:Ki
Adenosine-A2a [9] = test: Fluorescent ligand binding, adenosine-A2a receptor; conditions: Table I
Description: Recommended Assay Conditions for ADENOSINE-A2A RECEPTOR LIGAND (PDC 018.075)
Incubation buffer: 50 mM Tris-HCL containing 10mM MgCl2, (pH 7.4 at 25° C.)
(§3) Spectra: 492 nm (ex) and 516 nm (em)
as §2
3. Incubation Time: 90 minutes at 25° C.

Adenosine-A2a [10] = test: Radioligand binding, adenosine-A2a; conditions: Table I; read-out: Radiolig. Kd:Ki
Peripheral Bzd [11] = test: Fluorescent ligand binding, peripheral benzodiazepine receptor; conditions: Table I
Description: PERIPHERAL BENZODIAZEPINE RECEPTOR LIGAND (PDC 018.091)
as §1
Incubation buffer: 50 Nm Tris-Citrate containing […] MgCL2 (pH 7.0 at 4° C.)
as §3, §2

Peripheral Bzd [12] = test: Radioligand binding, peripheral benzodiazepine receptor; conditions: Table I; read-out: Radiolig. Kd:Ki
[13] = density of binding of the ligand
[14] = centri., quench, read-out: Fluores. Kd
[15] = centrifugation, read-out: Fluores. Kd

## CN(C(=O)Cc1cc(Cl)c(Cl)cc1NC(=O)CCCNC(=O)c1ccc2c(c1)C(=O)OC21c2ccc(O)cc2Oc2cc(O)ccc21)[C@@H]1CCCC[C@H]1N1CCCC1 [1R,2R-trans-4,5-dichloro-2-(4-fluorescein-5-carboxamido)-n-butaniado)-(N-methyl)-2-(1-pyrrolidnyl)-cyclohexyl)benzeneacetamide]
Kappa 1
  Measurement using the fluorescence assay: confirmed the radioligand results
kappa1 opioid receptor; 1R,2R enantiomer
  IC50: 3230 nM
kappa1 opioid receptor; bound in parentheses
  IC50: > 1000 nM

## Cc1nnc2n1-c1ccc(Cl)cc1C(c1ccccc1)=NC2 [Alprazolam, alprazolam]
Benzodiazepine receptors; nonequilibrium and equilibrium binding conditions
  specific to nonspecific (signal to noise) binding ratios: high
Benzodiazepine receptors; rat brain membranes, saturable and specific
  affinity for benzodiazepine receptors: low nanomolar affinity
Benzodiazepine receptors; rat brain
  selectivity in vitro for benzodiazepine receptors: selective and specific ligand

## NCCCC(=O)O [GABA]
Benzodiazepine receptors; rat brain membranes
  effect on [^3 H]alprazolam binding: enhanced

## O=C(NCCCCCCNc1ccc([N+](=O)[O-])c2nonc12)c1cc(O)c2c(Cl)cc(Cl)cc2n1 [PDC 002.083]
Glycine; [13]
  Bmax: 14.5 pmol/mg prot.
Glycine; read-out: Fluores. Kd, centri., quench
  Kd: 750 nM

## CCN(CC)CCNC(=O)c1cc(Cl)c(NC(=O)CCCCCNc2ccc([N+](=O)[O-])c3nonc23)cc1OC [PDC 014.036]
Dopamine 2 [1]; [14]
  Kd: 500 nM
Dopamine 2 [1]; [13]
  Bmax: 0.13 pmol/mg prot.
Dopamine 2 [2]
  Ki: 90 nM

## CN(C)c1cccc2c(S(=O)(=O)NCCCNC(Cc3ccccc3)c3ccccc3)cccc12 (centres unmarked) [PDC 014.041]
NMDA [3]; centri., spectral shift, read-out: Fluores. Kd
  Kd: 1000 nM
NMDA [3]; [13]
  Bmax: 1.9 pmol/mg prot.
NMDA [4]
  Ki: 45 nM

## O=[N+]([O-])c1ccc(NCCN2CCN(CCCN3c4ccccc4Sc4ccc(C(F)(F)F)cc43)CC2)c2nonc12 [PDC 014.043]
Dopamine 1 [5]; [14]
  Kd: 190 nM
Dopamine 1 [5]; [13]
  Bmax: 69 pmol/mg prot.
Dopamine 1 [6]
  Ki: 11 nM

## CCCCC/C=C\C/C=C\C/C=C\C/C=C\CCCC(=O)NCCNc1ccc([N+](=O)[O-])c2nonc12 [PDC 014.063]
Cannabinoid
  Ki: 52 nM

## CCCCC/C=C\C/C=C\C/C=C\C/C=C\CCCC(=O)NCCNS(=O)(=O)c1cccc2c(N(C)C)cccc12 [PDC 014.064]
Cannabinoid
  Ki: 52 nM

## O=[N+]([O-])c1ccc(NCCN2CCOCC2)c2nonc12 [PDC 018.039]
Muscarinic-M1 [7]; [14]
  Kd: 985 nM
Muscarinic-M1 [7]; [13]
  Bmax: 0.20 pmol/mg prot.
Muscarinic-M1 [8]
  Ki: 1700 nM

## CCNC(=O)[C@H]1O[C@@H](n2cnc3c(N)nc(NCCc4ccc(CCC(=O)NCCNC(=S)Nc5ccc6c(c5)C(=O)OC65c6ccc(O)cc6Oc6cc(O)ccc65)cc4)nc32)[C@H](O)[C@@H]1O [PDC 018.075]
Adenosine-A2a [9]; [15]
  Kd: 57 nM
Adenosine-A2a [9]; [13]
  Bmax: 2.3 pmol/mg prot.
Adenosine-A2a [10]
  Ki: 15 nM

## CCC(C)N(C)C(=O)c1cc2ccccc2c(-c2cc(NC(=O)c3ccc4c(c3)C(=O)OC43c4ccc(O)cc4Oc4cc(O)ccc43)ccc2F)n1 (centres unmarked) [PDC 018.091]
Peripheral Bzd [11]; [15]
  Kd: 40 nM
Peripheral Bzd [11]; [13]
  Bmax: 2.3 pmol/mg prot.
Peripheral Bzd [12]
  Ki: 2 nM
